Experimental data published in US20130209515A1, “ANTI-INFECTIVE AND IMMUNOMODULATORY COMPOUNDS” (priority 2005, published 2013).
Entries after “also recorded” stand apart in the source; their conditions may differ.

Tests used:
Format in all cases: cell-based, Pseudomonas aeruginosa
[1] = system: 4-hydroxy-2-alkylquinoline (HAQ) production
P. aeruginosa cells = conditions: 3 mM 2AA
P. aeruginosa = P. aeruginosa growth kinetics (spectrophotometric analysis at 600 nm); conditions: 2 mM compound, followed over 26 hours at 600 nm (FIG. 4)
Description: P. aeruginosa strains include wild-type (PA14, see Rahme et al., Science 268:1899-1902, 1995); a PA14 mvfR mutant (Cao et al., Proc. Natl. Acad. Sci. USA 98:14613-14618, 2001); a pqsE deletion mutant, generated via pEX18Ap allelic replacement by using sucrose selection (Hoang et al., Gene 212:77-86, 1998), resulting in a 570-bp nonpolar deletion covering 65% of the sequence (Déziel et al. PNAS); and the pqsA (U479) TnphoA mutant obtained from the PA14 Transposon Insertion Mutant Database. Bacteria were grown in LB broth or on 1.5% Bacto-agar (Difco) LB plates. Freshly plated cells served as inoculum.
P. aeruginosa was grown in the presence of 2 mM of 2′-aminoacetophenone (2AA), 3′-aminoacetophenone (3AA), 4′-aminoacetophenone (4AA), or 2′-nitroacetophenone (2NA), or in the absence of any of these compounds (control). Bacterial growth was followed over 26 hours by spectrophotometric analysis at 600 nm.
Bacterial growth was also followed over 35 hours by spectrophotometric analysis at 600 nm.

[2] = system: pqsA-LacZ (MvfR-dependent pqs operon transcription); experiment: pqsA-LacZ expression (β-galactosidase activity)
Description: To assess the effect of this compound on bacteria, we analyzed the production of HAQs in the presence of 2AA using LC/MS. The bacteria were propagated in the presence of 3 mM 2AA, culture media was collected at different time points, and the HHQ, PQS and HQNO production was measured in the supernatant. […] Since 2AA addition to the P. aeruginosa culture inhibits the production of HHQ and PQS, we assessed the transcription from the pqs operon using a pqsA-LacZ fusion.
To further, understand the mechanism of inhibition of the pqs operon by 2AA, we carried out competition assays of PQS and HHQ with 2AA. The expression of pqsA-LacZ in pqsApqsH double mutants was assessed. Bacteria were grown to an OD600 of 1.0 and HHQ and PQS were added either alone or with 2AA. LacZ expression was assayed at different stages of the growth, using standard protocols.
To determine whether HHQ activates MvfR expression, we generated a PA14pqsH/pqsA double mutant that lacks all HAQ production, and assessed pqsA-lacZ activity in the absence and presence of HHQ and PQS.

[3] = probable ATP-binding component of ABC transporter

CC(=O)c1ccccc1N [2AA, 2′-aminoacetophenone]
HHQ production [1]: no HHQ was produced
HQNO accumulation [1]: higher accumulation of HQNO
PQS production [1]: only a limited quantity of PQS was produced
production of 3,4-dihydroxy-2-heptylquinoline (PQS) [1]: decreased
production of 4-hydroxy-2-heptylquinoline (HHQ) [1]: decreased
production of 4-hydroxy-2-heptylquinoline N-oxide (HQNO) [1]: enhanced
genes whose expression was altered more than 2 fold (P. aeruginosa cells; harvested at OD600 of 3.0): approximately 1250 genes
genes downregulated (P. aeruginosa cells; more than 2 fold): 1056 genes
genes upregulated (P. aeruginosa cells; more than 2 fold): 199 genes
FOLD CHANGE PA3569 (P. aeruginosa cells; 3-hydroxyisobutyrate dehydrogenase mmsB): −2.6 fold
FOLD CHANGE PA0999 (P. aeruginosa cells; 3-oxoacyl-[acyl-carrier-protein] synthase III pqsD): −5.2 fold
FOLD CHANGE PA2570 (P. aeruginosa cells; PA-I galactophilic lectin): −4.5 fold
FOLD CHANGE PA1001 (P. aeruginosa cells; anthranilate synthase component I, phnA): −6.2 fold
FOLD CHANGE PA1002 (P. aeruginosa cells; anthranilate synthase component II, phnB): −4.9 fold
FOLD CHANGE PA0905 (P. aeruginosa cells; carbon storage regulator csrA): −2.7 fold
FOLD CHANGE PA1457 (P. aeruginosa cells; chemotaxis protein CheZ): −2.1 fold
FOLD CHANGE PA2300 (P. aeruginosa cells; chitinase): −3.2 fold
FOLD CHANGE PA0122 (P. aeruginosa cells; conserved hypothetical protein): −3.4 fold
FOLD CHANGE PA0567 (P. aeruginosa cells; conserved hypothetical protein): −3.0 fold
FOLD CHANGE PA1914 (P. aeruginosa cells; conserved hypothetical protein): −26.3 fold
FOLD CHANGE PA2754 (P. aeruginosa cells; conserved hypothetical protein): −2.0 fold
FOLD CHANGE PA4739 (P. aeruginosa cells; conserved hypothetical protein): −3.7 fold
FOLD CHANGE PA3105 (P. aeruginosa cells; general secretion pathway protein D): −2.2 fold
FOLD CHANGE PA3101 (P. aeruginosa cells; general secretion pathway protein G): −3.4 fold
FOLD CHANGE PA3100 (P. aeruginosa cells; general secretion pathway protein H): −2.1 fold
FOLD CHANGE PA3099 (P. aeruginosa cells; general secretion pathway protein I): −2.2 fold
FOLD CHANGE PA3098 (P. aeruginosa cells; general secretion pathway protein J): −2.2 fold
FOLD CHANGE PA3096 (P. aeruginosa cells; general secretion pathway protein L): −2.8 fold
FOLD CHANGE PA3195 (P. aeruginosa cells; glyceraldehyde 3-phosphate dehydrogenase): −3.2 fold
FOLD CHANGE PA3126 (P. aeruginosa cells; heat-shock protein IbpA): −2.5 fold
FOLD CHANGE PA2194 (P. aeruginosa cells; hydrogen cyanide synthase HcnB): −3.5 fold
FOLD CHANGE PA2195 (P. aeruginosa cells; hydrogen cyanide synthase HcnC): −2.9 fold
FOLD CHANGE PA4205 (P. aeruginosa cells; hypothetical protein MexG): −6.1 fold
FOLD CHANGE PA0997 (P. aeruginosa cells; hypothetical protein pqsB): −4.6 fold
FOLD CHANGE PA0998 (P. aeruginosa cells; hypothetical protein pqsC): −5.4 fold
FOLD CHANGE PA1000 (P. aeruginosa cells; hypothetical protein pqsE): −4.3 fold
FOLD CHANGE PA1216 (P. aeruginosa cells; hypothetical protein): −2.7 fold
FOLD CHANGE PA1852 (P. aeruginosa cells; hypothetical protein): −2.3 fold
FOLD CHANGE PA2031 (P. aeruginosa cells; hypothetical protein): −2.0 fold
FOLD CHANGE PA2134 (P. aeruginosa cells; hypothetical protein): −2.5 fold
FOLD CHANGE PA2172 (P. aeruginosa cells; hypothetical protein): −2.4 fold
FOLD CHANGE PA2173 (P. aeruginosa cells; hypothetical protein): −2.3 fold
FOLD CHANGE PA2274 (P. aeruginosa cells; hypothetical protein): −3.7 fold
FOLD CHANGE PA2328 (P. aeruginosa cells; hypothetical protein): −4.5 fold
FOLD CHANGE PA2330 (P. aeruginosa cells; hypothetical protein): −11.7 fold
FOLD CHANGE PA2331 (P. aeruginosa cells; hypothetical protein): −10.9 fold
FOLD CHANGE PA2486 (P. aeruginosa cells; hypothetical protein): −2.3 fold
FOLD CHANGE PA3031 (P. aeruginosa cells; hypothetical protein): −3.1 fold
FOLD CHANGE PA3370 (P. aeruginosa cells; hypothetical protein): −2.2 fold
FOLD CHANGE PA3371 (P. aeruginosa cells; hypothetical protein): −2.1 fold
FOLD CHANGE PA3691 (P. aeruginosa cells; hypothetical protein): −7.0 fold
FOLD CHANGE PA4917 (P. aeruginosa cells; hypothetical protein): −2.1 fold
FOLD CHANGE PA3570 (P. aeruginosa cells; methylmalonate-semialdehyde dehydrogenase): −2.9 fold
FOLD CHANGE PA4876 (P. aeruginosa cells; osmotically inducible lipoprotein OsmE): −2.6 fold
FOLD CHANGE PA3186 (P. aeruginosa cells; outer membrane porin OprB precursor): −2.2 fold
FOLD CHANGE PA1901 (P. aeruginosa cells; phenazine biosynthesis protein PhzC): −3.4 fold
FOLD CHANGE PA1902 (P. aeruginosa cells; phenazine biosynthesis protein PhzD): −3.4 fold
FOLD CHANGE PA1903 (P. aeruginosa cells; phenazine biosynthesis protein PhzE): −3.1 fold
FOLD CHANGE PA2329 (P. aeruginosa cells; [3]): −9.8 fold
FOLD CHANGE PA3187 (P. aeruginosa cells; [3]): −2.6 fold
FOLD CHANGE PA4217 (P. aeruginosa cells; probable FAD-dependent monooxygenase phzS1): −5.4 fold
FOLD CHANGE PA4209 (P. aeruginosa cells; probable O-methyltransferase phzM): −2.4 fold
FOLD CHANGE PA4206 (P. aeruginosa cells; probable RND efflux membrane fusion protein precursor mexH): −5.9 fold
FOLD CHANGE PA4207 (P. aeruginosa cells; probable RND efflux transporter mexI): −7.5 fold
FOLD CHANGE PA2069 (P. aeruginosa cells; probable carbamoyl transferase): −2.5 fold
FOLD CHANGE PA0996 (P. aeruginosa cells; probable coenzyme A ligase pqsA): −3.0 fold
FOLD CHANGE PA2204 (P. aeruginosa cells; probable component of ABC transporter): −3.1 fold
FOLD CHANGE PA2067 (P. aeruginosa cells; probable hydrolase): −2.5 fold
FOLD CHANGE PA3812 (P. aeruginosa cells; probable iron-binding protein IscA): −5.9 fold
FOLD CHANGE PA3813 (P. aeruginosa cells; probable iron-binding protein IscU): −6.7 fold
FOLD CHANGE PA4208 (P. aeruginosa cells; probable outer membrane efflux protein precursor, OpmD): −6.8 fold
FOLD CHANGE PA3692 (P. aeruginosa cells; probable outer membrane protein): −4.7 fold
FOLD CHANGE PA3189 (P. aeruginosa cells; probable permease of ABC sugar transporter): −2.0 fold
FOLD CHANGE PA2327 (P. aeruginosa cells; probable permease of ABC transporter): −4.9 fold
FOLD CHANGE PA4210 (P. aeruginosa cells; probable phenazine biosynthesis protein phzA1): −3.3 fold
FOLD CHANGE PA4211 (P. aeruginosa cells; probable phenazine biosynthesis protein phzB1): −2.9 fold
FOLD CHANGE PA1904 (P. aeruginosa cells; probable phenazine biosynthesis protein): −3.6 fold
FOLD CHANGE PA1905 (P. aeruginosa cells; probable pyridoxamine 5′-phosphate oxidase): −3.4 fold
FOLD CHANGE PA4218 (P. aeruginosa cells; probable transporter): −5.3 fold
FOLD CHANGE PA0355 (P. aeruginosa cells; protease pfpI): −2.7 fold
FOLD CHANGE PA1456 (P. aeruginosa cells; two-component response regulator CheY): −2.3 fold
Bacterial growth (P. aeruginosa): only slightly retarded
LacZ expression from pqsA-LacZ fusion ([2]; PA14, 3 mM 2AA (FIG. 14)): significant reduction
pqsA expression (pqsA-LacZ) in response to HHQ ([2]; pqsApqsH double mutant, 3 mM 2AA with 1 mg/L HHQ): blocks pqsA expression
pqsA expression (pqsA-LacZ) in response to PQS ([2]; pqsApqsH double mutant, 3 mM 2AA with 10 μl PQS): blocks pqsA expression; also recorded: inhibits pqsA expression at later time points
